Source: patent US20230149400A1, “METHODS AND COMPOSITIONSFOR TREATING VIRAL INFECTIONS” (ACLARIS THERAPEUTICS, INC., priority 2020, published 2023)
Read-outs that look alike come from different tables or passages of the source.

What was measured:
[1] = system: lung polymorphonuclear neutrophils (PMN); assay: Rat model of pulmonary inflammation (LPS aerosol), lung lavage PMN count; details: oral 1 mg/kg or 10 mg/kg, 4 hours after LPS exposure, versus vehicle
Protocol: One hour after administration, animals were placed in an aerosol chamber containing 60 μg/mL lipopolysaccharide (LPS) for 40 minutes and then removed to room air. Four hours after LPS exposure, lungs of the animals were lavaged with cold D-PBS/EDTA solution and the total number of polymorphonuclear neutrophils (PMN) in the solution were counted as an indicator of the inflammatory response.

[2] = system: lipopolysaccharide (TLR4)-stimulated cytokines and chemokines; assay: Ex vivo LPS (TLR4)-stimulated cytokine/chemokine production in whole blood of subjects given oral ATI-450; set-up: species or system human; details: for inhibition at 50 mg: Homo sapiens, po, both cohorts (100 mg once daily; 50 mg twice daily), compared to placebo
Protocol: Data were collected following stimulation by a lipopolysaccharide (LPS) at a single time point (5 hours) in each isolated ex vivo human whole blood sample collected. […]. Cytokines evaluated include: IL-1b, IL-1RA, IL-2, IL-7, IL-8, IL-9, IL-10, basic FGF, GCSF, GMCSF, IFNγ, IP-10, MCP-1, MIP-1α, MIP-1β, PDGF, TNFα, and VEGF.

[3] = test subjects
[4] = Cohort 1 (SAD), 100 mg ATI-450 once daily
[5] = Cohort 2 (MAD), 50 mg ATI-450 twice daily

Compound: Cc1cnc(-c2ccnc(C(C)(C)O)n2)cc1-n1c(C)cc(OCc2ncc(F)cc2F)c(Cl)c1=O (single isomer, unassigned) [ATI-450, 3-chloro-4-((3,5-difluoropyridin-2-yl)methoxy)-2′-(2-(2-hydroxypropan-2-yl)pyrimidin-4-yl)-5′,6-dimethyl-2H-[1,4′-bipyridin]-2-one]
- total lung PMNs [1]: significantly reduced
- LPS-stimulated IL-6, IL-8, MIP-1β, G-CSF, IL-1RA, IP-10, and MCP-1 levels ([2]; 50 mg ATI-450 twice daily): reduction
- LPS-stimulated IL-6, IL-8, and MIP-1β release ([2]; 100 mg ATI-450 once daily): reduction
- GCSF Not Stimulated [2, 4]: 25.01 pg/mL
- GCSF Stimulated [2, 4]: 232.34 pg/mL
- GMCSF Not Stimulated [2, 4]: 0.46 pg/mL
- GMCSF Stimulated [2, 4]: 25.12 pg/mL
- IFNγ Not Stimulated [2, 4]: 12.54 pg/mL
- IFNγ Stimulated [2, 4]: 57.72 pg/mL
- IL-1RA Not Stimulated [2, 4]: 974.42 pg/mL
- IL-1RA Stimulated [2, 4]: 7169.95 pg/mL
- IL-1β Not Stimulated [2, 4]: 1.86 pg/mL
- IL-1β Stimulated [2, 4]: 776.88 pg/mL
- IL-2 Not Stimulated [2, 4]: 0.65 pg/mL
- IL-2 Stimulated [2, 4]: 30.06 pg/mL
- IL-6 Not Stimulated [2, 4]: 15.28 pg/mL
- IL-6 Stimulated [2, 4]: 8700.41 pg/mL
- IL-7 Not Stimulated [2, 4]: 8.79 pg/mL
- IL-7 Stimulated [2, 4]: 8.04 pg/mL
- IL-8 Not Stimulated [2, 4]: 1564.00 pg/mL
- IL-8 Stimulated [2, 4]: 24421.33 pg/mL
- IL-9 Not Stimulated [2, 4]: 0.00 pg/mL
- IL-9 Stimulated [2, 4]: 0.00 pg/mL
- IL-10 Not Stimulated [2, 4]: 22.57 pg/mL
- IL-10 Stimulated [2, 4]: 752.46 pg/mL
- IP-10 Not Stimulated [2, 4]: 288.07 pg/mL
- IP-10 Stimulated [2, 4]: 1487.58 pg/mL
- MCP-1 Not Stimulated [2, 4]: 1026.37 pg/mL
- MCP-1 Stimulated [2, 4]: 1215.21 pg/mL
- MIP-1α Not Stimulated [2, 4]: 105.22 pg/mL
- MIP-1α Stimulated [2, 4]: 32722.63 pg/mL
- MIP-1β Not Stimulated [2, 4]: 504.74 pg/mL
- MIP-1β Stimulated [2, 4]: 49549.56 pg/mL
- TNFα Not Stimulated [2, 4]: 8.57 pg/mL
- TNFα Stimulated [2, 4]: 5270.06 pg/mL
- VEGF Not Stimulated [2, 4]: 186.34 pg/mL
- VEGF Stimulated [2, 4]: 231.92 pg/mL
- bFGF Not Stimulated [2, 4]: 29.69 pg/mL
- bFGF Stimulated [2, 4]: 28.63 pg/mL
- inhibition of LPS-stimulated IL-1RA ([2]; Cohort 1 and Cohort 2): about 30%
- inhibition of LPS-stimulated IL-10 ([2]; Cohort 1 and Cohort 2): about 30%
- GCSF Not Stimulated [2, 5]: 16.33 pg/mL
- GCSF Stimulated [2, 5]: 292.44 pg/mL
- GMCSF Not Stimulated [2, 5]: 0.21 pg/mL
- GMCSF Stimulated [2, 5]: 19.15 pg/mL
- IFNγ Not Stimulated [2, 5]: 33.45 pg/mL
- IFNγ Stimulated [2, 5]: 57.81 pg/mL
- IL-1RA Not Stimulated [2, 5]: 893.81 pg/mL
- IL-1RA Stimulated [2, 5]: 13830.24 pg/mL
- IL-1β Not Stimulated [2, 5]: 2.25 pg/mL
- IL-1β Stimulated [2, 5]: 381.38 pg/mL
- IL-2 Not Stimulated [2, 5]: 2.86 pg/mL
- IL-2 Stimulated [2, 5]: 14.18 pg/mL
- IL-6 Not Stimulated [2, 5]: 5.70 pg/mL
- IL-6 Stimulated [2, 5]: 9359.59 pg/mL
- IL-7 Not Stimulated [2, 5]: 7.40 pg/mL
- IL-7 Stimulated [2, 5]: 6.87 pg/mL
- IL-8 Stimulated [2, 5]: 30259.47 pg/mL
- IL-9 Not Stimulated [2, 5]: 3.10 pg/mL
- IL-9 Stimulated [2, 5]: 2.77 pg/mL
- IL-10 Not Stimulated [2, 5]: 2.05 pg/mL
- IL-10 Stimulated [2, 5]: 108.90 pg/mL
- IP-10 Not Stimulated [2, 5]: 474.58 pg/mL
- IP-10 Stimulated [2, 5]: 1513.02 pg/mL
- MCP-1 Not Stimulated [2, 5]: 728.09 pg/mL
- MCP-1 Stimulated [2, 5]: 1124.80 pg/mL
- MIP-1α Not Stimulated [2, 5]: 193.51 pg/mL
- MIP-1α Stimulated [2, 5]: 38207.05 pg/mL
- MIP-1β Not Stimulated [2, 5]: 806.79 pg/mL
- MIP-1β Stimulated [2, 5]: 89906.73 pg/mL
- TNFα Not Stimulated [2, 5]: 13.44 pg/mL
- TNFα Stimulated [2, 5]: 6402.98 pg/mL
- VEGF Not Stimulated [2, 5]: 202.39 pg/mL
- VEGF Stimulated [2, 5]: 191.77 pg/mL
- bFGF Not Stimulated [2, 5]: 25.04 pg/mL
- bFGF Stimulated [2, 5]: 24.50 pg/mL
- inhibition at 50 mg ([2]; read-out: inhibition of LPS-stimulated GM-CSF): ≥ 70%
- inhibition at 50 mg ([2]; read-out: inhibition of LPS-stimulated IFNγ): ≥ 70%
- inhibition at 50 mg ([2]; read-out: inhibition of LPS-stimulated IL-2): ≥ 70%
- inhibition at 50 mg ([2]; read-out: inhibition of LPS-stimulated MIP-1α): ≥ 70%
- tolerability [3]: well tolerated
